{
  "source": "PubChem BioAssay (NCI)",
  "test_in_all_cases": "growth of human tumour cells (NCI), 48 h",
  "key": {"[1]": {"tested_on": "SK-OV-3 ovarian"}, "[2]": {"tested_on": "IGROV1 ovarian"}, "[3]": {"tested_on": "SN12C renal"}, "[4]": {"tested_on": "MDA-MB-435"}, "[5]": {"tested_on": "PC-3 prostate"}, "[6]": {"tested_on": "OVCAR-5 ovarian"}, "[7]": {"tested_on": "HS 578T breast"}, "[8]": {"tested_on": "K-562 leukemia"}, "[9]": {"tested_on": "NCI-H23 lung"}, "[10]": {"tested_on": "SK-MEL-5 melanoma"}, "[11]": {"tested_on": "CCRF-CEM leukemia"}, "[12]": {"tested_on": "SF-539 CNS"}, "[13]": {"tested_on": "SK-MEL-28 melanoma"}, "[14]": {"tested_on": "T-47D breast"}, "[15]": {"tested_on": "SNB-75 CNS"}, "[16]": {"tested_on": "HCT-116 colon"}, "[17]": {"tested_on": "SNB-19 CNS"}, "[18]": {"tested_on": "UACC-257 melanoma"}, "[19]": {"tested_on": "SW-620 colon"}, "[20]": {"tested_on": "OVCAR-4 ovarian"}, "[21]": {"tested_on": "ACHN renal"}, "[22]": {"tested_on": "SK-MEL-2 melanoma"}, "[23]": {"tested_on": "HL-60(TB) leukemia"}, "[24]": {"tested_on": "NCI-H460 lung"}, "[25]": {"tested_on": "MCF7 breast"}, "[26]": {"tested_on": "HOP-62 NSCLC"}, "[27]": {"tested_on": "CAKI-1 renal"}, "[28]": {"tested_on": "A498 renal"}, "[29]": {"tested_on": "MOLT-4 leukemia"}},
  "note": "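Five concentrations, 48 hours, 96-well plates. At the GI50, growth is halved. TGI denotes the concentration required for complete inhibition of growth.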",
  "data": [
    {"smiles": "N#Cc1cc(-c2ccnc(Nc3ccc(NC(=O)CCl)cc3)n2)ccc1N1CCCC1", "values": [
      {"measurement": "TGI", "setting": "[1]", "value": 6.97, "unit": "µM"},
      {"measurement": "GI50", "setting": "[2]", "value": 0.514, "unit": "µM"},
      {"measurement": "TGI", "setting": "[2]", "value": 1.18, "unit": "µM"},
      {"measurement": "GI50", "setting": "[3]", "value": 0.818, "unit": "µM"},
      {"measurement": "TGI", "setting": "[3]", "value": 4.59, "unit": "µM"},
      {"measurement": "GI50", "setting": "[4]", "value": 0.716, "unit": "µM"},
      {"measurement": "TGI", "setting": "[4]", "value": 2.7, "unit": "µM"},
      {"measurement": "GI50", "setting": "[5]", "value": 2.68, "unit": "µM"},
      {"measurement": "TGI", "setting": "[5]", "value": 13.9, "unit": "µM"},
      {"measurement": "GI50", "setting": "[6]", "value": 5.4, "unit": "µM"},
      {"measurement": "TGI", "setting": "[6]", "value": 12.7, "unit": "µM"},
      {"measurement": "GI50", "setting": "[7]", "value": 2.22, "unit": "µM"},
      {"measurement": "TGI", "setting": "[7]", "value": "> 25", "unit": "µM"},
      {"measurement": "GI50", "setting": "[8]", "value": 0.711, "unit": "µM"},
      {"measurement": "TGI", "setting": "[8]", "value": "> 25", "unit": "µM"},
      {"measurement": "GI50", "setting": "[9]", "value": 0.878, "unit": "µM"},
      {"measurement": "TGI", "setting": "[9]", "value": 3.72, "unit": "µM"},
      {"measurement": "GI50", "setting": "[10]", "value": 1.08, "unit": "µM"},
      {"measurement": "TGI", "setting": "[10]", "value": 3.72, "unit": "µM"},
      {"measurement": "GI50", "setting": "[11]", "value": 0.738, "unit": "µM"},
      {"measurement": "TGI", "setting": "[11]", "value": "> 25", "unit": "µM"},
      {"measurement": "GI50", "setting": "[12]", "value": 2.81, "unit": "µM"},
      {"measurement": "TGI", "setting": "[12]", "value": 5.9, "unit": "µM"},
      {"measurement": "GI50", "setting": "[13]", "value": 4.28, "unit": "µM"},
      {"measurement": "TGI", "setting": "[13]", "value": 8.54, "unit": "µM"},
      {"measurement": "GI50", "setting": "[14]", "value": 5.1, "unit": "µM"},
      {"measurement": "TGI", "setting": "[14]", "value": 11, "unit": "µM"},
      {"measurement": "GI50", "setting": "[15]", "value": 1.12, "unit": "µM"},
      {"measurement": "TGI", "setting": "[15]", "value": 7.72, "unit": "µM"},
      {"measurement": "GI50", "setting": "[16]", "value": 0.684, "unit": "µM"},
      {"measurement": "TGI", "setting": "[16]", "value": 1.88, "unit": "µM"},
      {"measurement": "GI50", "setting": "[17]", "value": 4.87, "unit": "µM"},
      {"measurement": "TGI", "setting": "[17]", "value": 16.7, "unit": "µM"},
      {"measurement": "GI50", "setting": "[18]", "value": 5.04, "unit": "µM"},
      {"measurement": "TGI", "setting": "[18]", "value": 11.6, "unit": "µM"},
      {"measurement": "GI50", "setting": "[19]", "value": 0.815, "unit": "µM"},
      {"measurement": "TGI", "setting": "[19]", "value": 2.63, "unit": "µM"},
      {"measurement": "GI50", "setting": "[20]", "value": 3.49, "unit": "µM"},
      {"measurement": "TGI", "setting": "[20]", "value": 10.5, "unit": "µM"},
      {"measurement": "GI50", "setting": "[21]", "value": 1.86, "unit": "µM"},
      {"measurement": "TGI", "setting": "[21]", "value": 6.6, "unit": "µM"},
      {"measurement": "GI50", "setting": "[22]", "value": 0.933, "unit": "µM"},
      {"measurement": "TGI", "setting": "[22]", "value": 2.92, "unit": "µM"},
      {"measurement": "GI50", "setting": "[23]", "value": 5.1, "unit": "µM"},
      {"measurement": "TGI", "setting": "[23]", "value": "> 25", "unit": "µM"},
      {"measurement": "GI50", "setting": "[24]", "value": 2.04, "unit": "µM"},
      {"measurement": "TGI", "setting": "[24]", "value": 6.4, "unit": "µM"},
      {"measurement": "GI50", "setting": "[25]", "value": 0.809, "unit": "µM"},
      {"measurement": "TGI", "setting": "[25]", "value": 3.64, "unit": "µM"},
      {"measurement": "GI50", "setting": "[26]", "value": 4.64, "unit": "µM"},
      {"measurement": "TGI", "setting": "[26]", "value": 18.8, "unit": "µM"},
      {"measurement": "GI50", "setting": "[27]", "value": 0.875, "unit": "µM"},
      {"measurement": "TGI", "setting": "[27]", "value": 6.77, "unit": "µM"},
      {"measurement": "GI50", "setting": "[28]", "value": 3.88, "unit": "µM"},
      {"measurement": "TGI", "setting": "[28]", "value": 9.92, "unit": "µM"},
      {"measurement": "GI50", "setting": "[29]", "value": 2.42, "unit": "µM"},
      {"measurement": "TGI", "setting": "[29]", "value": "> 25", "unit": "µM"}
    ]}
  ]
}
